Calls of active or inactive are those of the source. The calls are words filed in the database; no cut-off is given here.
Key:
Aurora kinase A = biological target: T1, Aurora kinase A (Homo sapiens, UniProt O14965)
T1 sequence (O14965 whole entry): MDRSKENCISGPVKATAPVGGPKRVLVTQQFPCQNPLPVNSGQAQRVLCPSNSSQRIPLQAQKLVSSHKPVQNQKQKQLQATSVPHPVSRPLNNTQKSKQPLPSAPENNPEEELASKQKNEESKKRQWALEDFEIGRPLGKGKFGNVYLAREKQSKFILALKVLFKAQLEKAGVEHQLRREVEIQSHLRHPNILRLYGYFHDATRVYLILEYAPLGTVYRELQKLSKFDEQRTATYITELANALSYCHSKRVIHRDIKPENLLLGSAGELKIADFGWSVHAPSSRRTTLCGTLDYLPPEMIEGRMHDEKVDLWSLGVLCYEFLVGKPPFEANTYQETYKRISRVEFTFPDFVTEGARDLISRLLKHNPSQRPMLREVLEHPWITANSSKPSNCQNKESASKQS

MOLM-13 [1] = experiment: cells; details: Homo sapiens
Description: Antiproliferative activity against human MOLM13 cells expressing FLT3-ITD mutant

[2] = biological target: Vascular endothelial growth factor receptor 2 (Homo sapiens, UniProt P35968)
[3] = AUC (0 to 4 hrs) in rat at 2 mg/kg, iv; type: ADME, organism-based; set-up: time < 4 hr, dose 2 mg/kg, route intravenous; details: plasma
[4] = biological target: T2, Receptor-type tyrosine-protein kinase FLT3 (Homo sapiens, UniProt P36888)
T2 sequence (P36888 whole entry): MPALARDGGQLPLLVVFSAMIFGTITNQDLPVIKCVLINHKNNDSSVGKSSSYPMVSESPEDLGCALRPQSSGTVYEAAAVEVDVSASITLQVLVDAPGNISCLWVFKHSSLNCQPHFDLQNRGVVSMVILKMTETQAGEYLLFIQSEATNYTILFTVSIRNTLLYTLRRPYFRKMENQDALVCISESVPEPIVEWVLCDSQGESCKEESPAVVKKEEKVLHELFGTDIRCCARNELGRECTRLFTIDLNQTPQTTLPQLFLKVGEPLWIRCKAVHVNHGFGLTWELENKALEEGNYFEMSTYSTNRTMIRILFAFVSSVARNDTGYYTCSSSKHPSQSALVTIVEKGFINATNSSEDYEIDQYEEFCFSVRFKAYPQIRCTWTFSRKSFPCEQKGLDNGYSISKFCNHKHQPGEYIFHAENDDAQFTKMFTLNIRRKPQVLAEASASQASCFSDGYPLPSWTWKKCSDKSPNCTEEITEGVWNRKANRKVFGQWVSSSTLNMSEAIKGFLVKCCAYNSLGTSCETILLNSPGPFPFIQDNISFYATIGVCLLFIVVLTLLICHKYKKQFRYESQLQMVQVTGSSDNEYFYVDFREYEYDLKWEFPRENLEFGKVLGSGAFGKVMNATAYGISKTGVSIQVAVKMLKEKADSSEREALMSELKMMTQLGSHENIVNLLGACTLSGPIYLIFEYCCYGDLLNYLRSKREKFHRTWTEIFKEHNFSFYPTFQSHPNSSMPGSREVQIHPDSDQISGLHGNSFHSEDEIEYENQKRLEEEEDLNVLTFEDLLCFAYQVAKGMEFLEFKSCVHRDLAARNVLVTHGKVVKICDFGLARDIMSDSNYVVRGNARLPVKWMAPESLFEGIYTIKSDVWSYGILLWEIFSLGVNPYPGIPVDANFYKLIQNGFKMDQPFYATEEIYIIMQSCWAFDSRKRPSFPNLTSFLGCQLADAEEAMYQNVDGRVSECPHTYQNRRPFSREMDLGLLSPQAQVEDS
Description: Inhibition of wild type FLT3

[5] = biological target: Vascular endothelial growth factor receptor 1 (Homo sapiens, UniProt P17948)
[6] = biological target: Receptor-type tyrosine-protein kinase FLT3 (Homo sapiens) (UniProt P36888); experiment: (§1) Inhibition of FLT3 autophosphorylation in human MV4-11 cells after 2 hrs by Western blot analysis; type: cell-based
[7] = biological target: T2, Receptor-type tyrosine-protein kinase FLT3; experiment: as §1; type: cell-based
[8] = Oral bioavailability in Sprague-Dawley rat; type: ADME, organism-based; details: in vivo
MOLM-13 [9] = experiment: Antitumor activity against human MOLM13 cells expressing FLT3-ITD mutant xenografted in athymic nude NU-Fox1 mouse assessed as tumor regression at 25 mg/kg, iv administered QD on days 1 to 5 and 8 to 12 measured up to 30 days; type: functional, organism-based; set-up: dose 25 mg/kg
MOLM-13 [10] = experiment: Antitumor activity against human MOLM13 cells expressing FLT3-ITD mutant xenografted in athymic nude NU-Fox1 mouse assessed as tumor regression at 25 mg/kg, iv administered as single dose; type: functional, organism-based; set-up: dose 25 mg/kg
MV4-11 = experiment: Antiproliferative activity against human MV4-11 cells expressing FLT3-ITD mutant; type: functional
Mus musculus = experiment: Toxicity in athymic nude NU-Fox1 mouse xenografted with human MOLM-13 cells assessed as body weight loss at 25 mg/kg, iv administered QD on days 1 to 5 and 8 to 12 measured up to 30 days; type: organism-based; set-up: dose 25 mg/kg, route intravenous; details: in vivo, 720 h
[11] = Plasma concentration in Sprague-Dawley rat at 2 mg/kg, iv at 24 hrs; type: ADME, organism-based; set-up: dose 2 mg/kg, route intravenous
[12] = Half life in Sprague-Dawley rat plasma at 2 mg/kg, iv; type: ADME, organism-based; set-up: dose 2 mg/kg, route intravenous
[13] = Cmax in Sprague-Dawley rat at 2 mg/kg, iv at 5 mins; type: ADME, organism-based; set-up: dose 2 mg/kg, route intravenous; details: in vivo
[14] = Plasma clearance in Sprague-Dawley rat at 2 mg/kg, iv; type: ADME, organism-based; set-up: dose 2 mg/kg, route intravenous
[15] = AUC in Sprague-Dawley rat at 2 mg/kg, iv; type: ADME, organism-based; set-up: dose 2 mg/kg, route intravenous; details: plasma
[16] = Volume of distribution in Sprague-Dawley rat at 2 mg/kg, iv; type: ADME, organism-based; set-up: dose 2 mg/kg, route intravenous; details: in vivo

Sequence of Vascular endothelial growth factor receptor 2 (P35968 whole entry): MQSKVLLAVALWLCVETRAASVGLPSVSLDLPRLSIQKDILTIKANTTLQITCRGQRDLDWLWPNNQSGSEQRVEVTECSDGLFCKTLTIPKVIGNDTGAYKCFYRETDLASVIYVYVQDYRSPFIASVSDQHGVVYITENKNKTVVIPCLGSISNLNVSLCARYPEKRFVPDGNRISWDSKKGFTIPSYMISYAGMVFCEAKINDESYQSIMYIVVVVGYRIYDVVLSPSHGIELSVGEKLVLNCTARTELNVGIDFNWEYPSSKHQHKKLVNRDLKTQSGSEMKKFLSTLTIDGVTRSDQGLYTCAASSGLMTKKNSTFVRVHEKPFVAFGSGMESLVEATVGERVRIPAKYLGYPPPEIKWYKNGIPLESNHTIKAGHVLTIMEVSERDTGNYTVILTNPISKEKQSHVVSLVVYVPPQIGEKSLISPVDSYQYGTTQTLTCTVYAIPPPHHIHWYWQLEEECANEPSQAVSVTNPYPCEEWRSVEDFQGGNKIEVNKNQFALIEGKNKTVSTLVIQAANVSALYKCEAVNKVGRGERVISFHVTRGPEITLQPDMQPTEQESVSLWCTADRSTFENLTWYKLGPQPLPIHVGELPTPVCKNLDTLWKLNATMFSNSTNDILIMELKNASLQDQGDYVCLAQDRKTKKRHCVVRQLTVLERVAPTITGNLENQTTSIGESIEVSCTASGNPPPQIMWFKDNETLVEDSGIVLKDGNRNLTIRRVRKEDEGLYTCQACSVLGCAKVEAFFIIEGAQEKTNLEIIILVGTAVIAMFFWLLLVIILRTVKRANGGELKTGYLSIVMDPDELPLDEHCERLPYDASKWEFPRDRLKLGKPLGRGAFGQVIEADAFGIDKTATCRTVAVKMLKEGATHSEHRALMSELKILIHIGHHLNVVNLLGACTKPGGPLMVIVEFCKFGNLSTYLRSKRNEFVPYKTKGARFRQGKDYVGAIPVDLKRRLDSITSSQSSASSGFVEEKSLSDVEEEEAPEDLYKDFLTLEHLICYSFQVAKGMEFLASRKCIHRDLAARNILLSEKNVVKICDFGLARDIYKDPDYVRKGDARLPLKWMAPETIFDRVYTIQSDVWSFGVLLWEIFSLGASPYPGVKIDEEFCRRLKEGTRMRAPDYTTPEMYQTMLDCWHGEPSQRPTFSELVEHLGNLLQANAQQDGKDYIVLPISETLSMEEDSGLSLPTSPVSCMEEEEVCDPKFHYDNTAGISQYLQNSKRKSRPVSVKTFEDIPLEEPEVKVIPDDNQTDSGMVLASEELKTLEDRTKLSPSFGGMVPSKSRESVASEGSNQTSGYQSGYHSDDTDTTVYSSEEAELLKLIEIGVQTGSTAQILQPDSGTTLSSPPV
Sequence of Vascular endothelial growth factor receptor 1 (P17948 whole entry): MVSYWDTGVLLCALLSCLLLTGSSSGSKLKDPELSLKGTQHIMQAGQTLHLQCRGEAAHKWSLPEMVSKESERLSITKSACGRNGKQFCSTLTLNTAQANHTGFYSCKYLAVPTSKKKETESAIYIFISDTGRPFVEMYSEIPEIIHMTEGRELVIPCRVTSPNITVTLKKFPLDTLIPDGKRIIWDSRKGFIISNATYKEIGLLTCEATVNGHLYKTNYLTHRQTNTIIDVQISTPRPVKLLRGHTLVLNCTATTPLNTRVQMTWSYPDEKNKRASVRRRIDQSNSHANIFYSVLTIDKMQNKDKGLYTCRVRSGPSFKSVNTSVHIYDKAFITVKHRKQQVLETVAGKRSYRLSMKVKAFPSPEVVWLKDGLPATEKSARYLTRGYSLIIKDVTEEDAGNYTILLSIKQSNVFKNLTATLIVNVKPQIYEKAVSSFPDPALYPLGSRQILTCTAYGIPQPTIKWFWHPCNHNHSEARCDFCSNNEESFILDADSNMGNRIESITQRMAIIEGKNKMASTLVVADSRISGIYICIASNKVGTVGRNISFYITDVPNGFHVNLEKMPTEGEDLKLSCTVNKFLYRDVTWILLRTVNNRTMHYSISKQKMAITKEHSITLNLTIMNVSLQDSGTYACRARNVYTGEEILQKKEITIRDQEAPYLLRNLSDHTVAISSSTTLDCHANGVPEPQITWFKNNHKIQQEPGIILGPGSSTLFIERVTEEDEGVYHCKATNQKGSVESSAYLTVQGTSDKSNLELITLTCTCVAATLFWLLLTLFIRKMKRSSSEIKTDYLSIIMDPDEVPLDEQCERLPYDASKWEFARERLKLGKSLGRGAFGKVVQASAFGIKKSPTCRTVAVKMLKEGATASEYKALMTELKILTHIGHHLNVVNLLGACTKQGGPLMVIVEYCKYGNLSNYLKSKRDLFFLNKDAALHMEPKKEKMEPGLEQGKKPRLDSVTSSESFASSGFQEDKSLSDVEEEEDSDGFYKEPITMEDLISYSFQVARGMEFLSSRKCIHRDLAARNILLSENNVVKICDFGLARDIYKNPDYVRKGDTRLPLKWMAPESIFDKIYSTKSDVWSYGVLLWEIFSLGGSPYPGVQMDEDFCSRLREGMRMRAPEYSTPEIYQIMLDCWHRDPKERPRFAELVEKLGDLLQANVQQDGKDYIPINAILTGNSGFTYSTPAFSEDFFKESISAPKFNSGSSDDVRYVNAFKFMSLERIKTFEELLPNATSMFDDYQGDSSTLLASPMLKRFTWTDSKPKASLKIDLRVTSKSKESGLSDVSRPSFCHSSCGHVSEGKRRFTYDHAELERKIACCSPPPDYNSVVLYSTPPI

| Structure (SMILES) | IC50 (Aurora kinase A) [nM] | GI50 (MOLM-13 [1]) [nM] | IC50 [2] [nM] | IC50 [4] [nM] | IC50 [5] [nM] | other results |
| --- | --- | --- | --- | --- | --- | --- |
| Cc1cc(COC(=O)NCc2ccc(-c3cc(NC(=O)c4ccc(OCCN5CCOCC5)cc4)[nH]n3)cc2)no1 | > 1000 | 4 | > 1000 | 52 | > 1000 | AUC(0-t) at 4 h [3]: 1030 ng·h/mL |
| O=C(NCc1ccc(-c2cc(NC(=O)c3ccc(OCCCN4CCCC4)cc3)[nH]n2)cc1)OCc1ccccc1 | > 1000 | 9 | 240 | 19 | 180 |  |
| Cc1nc(Nc2cc(-c3ccc(CNC(=O)OCc4ccccc4)cc3)n[nH]2)cc(N2CCNCC2)n1 | 350 | 6 | 190 | 17 | 82 |  |
| CN1CCN(Cc2ccc(C(=O)Nc3cc(-c4ccc(CNC(=O)OCc5ccccc5)cc4)n[nH]3)cc2)CC1 | > 1000 | 4 | 170 | 7 | 320 |  |
| Cc1nc(Nc2cc(-c3ccc(CNC(=O)OCc4cccnc4)cc3)n[nH]2)cc(N2CCN(C)CC2)n1 | > 1000 | 2 | > 1000 | 4 | > 1000 |  |
| O=C(NCc1ccc(-c2cc(NC(=O)c3ccc(OCCN4CCCC4)cc3)[nH]n2)cc1)OCc1cccnc1 | > 1000 | 8 | > 1000 | 35 | > 1000 | AUC(0-t) at 4 h [3]: 266 ng·h/mL |
| Cc1nc(Nc2cc(-c3ccc(CNC(=O)OCc4cccnc4)cc3)n[nH]2)cc(N2CCN(CCO)CC2)n1 | > 1000 | 3 | > 1000 | 21 | > 1000 |  |
| CN1CCN(c2ccc(C(=O)Nc3cc(-c4ccc(NC(=O)OCc5ccccc5)cc4)n[nH]3)cc2)CC1 | > 1000 | 16 | 48 | 7 | 200 |  |
| Cc1nc(Nc2cc(-c3ccc(CNC(=O)OCc4cc(C)on4)cc3)n[nH]2)cc(N2CCN(C)CC2)n1 | > 1000 | 4 | > 1000 | 5 | > 1000 |  |
| Cc1cc(COC(=O)NCc2ccc(-c3cc(NC(=O)c4ccc(N5CCN(C)CC5)cc4)[nH]n3)cc2)no1 | > 1000 | 1 | 370 | 27 | 350 |  |
| CN1CCN(c2ccc(C(=O)Nc3cc(-c4ccc(CNC(=O)Oc5ccccc5)cc4)n[nH]3)cc2)CC1 | > 1000 | 20 | 92 | 16 | 54 |  |
| CN1CCN(c2ccc(C(=O)Nc3cc(-c4ccc(CNC(=O)OCc5ccccc5)cc4)n[nH]3)cc2)CC1 | 880 | 2 | 100 | 6 | 20 |  |
| O=C(NCc1ccc(-c2cc(NC(=O)c3ccc(OCCN4CCCC4)cc3)[nH]n2)cc1)OCc1ccccc1 | > 1000 | 2 | 120 | 10 | 70 | inhibition [6]: Dose-dependent effect; IC50 [7]: 1 nM; bioavailability [8]: 5%; Activity (MOLM-13 [9]): Active; Activity (MOLM-13 [10]): Active; GI50 (MV4-11): 3 nM; Activity (Mus musculus): Non-toxic; concentration at 24 h [11]: 17 nM; half-life [12]: 6.2 h; AUC(0-t) at 4 h [3]: 1380 ng·h/mL; Cmax [13]: 5430 nM; clearance [14]: 16.2 mL/min/kg; AUC [15]: 5.79 µM·h; Vd [16]: 6 L/kg |
| CN1CCN(c2ccc(C(=O)Nc3cc(-c4ccc(CNS(=O)(=O)c5ccccc5)cc4)n[nH]3)cc2)CC1 | 1000 | 47 | > 1000 | 140 | > 1000 |  |
| CN1CCN(c2ccc(C(=O)Nc3cc(-c4ccc(NS(=O)(=O)c5ccccc5)cc4)n[nH]3)cc2)CC1 | > 1000 | 500 | > 1000 |  | > 1000 |  |
| O=C(NCc1ccc(-c2cc(NC(=O)c3ccc(OCCN4CCOCC4)cc3)[nH]n2)cc1)OCc1ccccc1 | 590 | 8 | 370 | 17 | 370 |  |
| Cc1nc(Nc2cc(-c3ccc(CNC(=O)OCc4ccccc4)cc3)n[nH]2)cc(N2CCN(C)CC2)n1 | 430 | 2 | 310 | 18 | 420 |  |
| CN1CCN(c2ccc(C(=O)Nc3cc(-c4ccc(NC(=O)Oc5ccccc5)cc4)n[nH]3)cc2)CC1 | > 1000 | 5 | 180 | 12 | 320 |  |
| O=C(NCc1ccc(-c2cc(NC(=O)c3ccc(OCCN4CCOCC4)cc3)[nH]n2)cc1)OCc1cccnc1 | > 1000 | 7 | > 1000 | 20 | > 1000 |  |
| Cc1nc(Nc2cc(-c3ccc(CNC(=O)OCc4cc(C)on4)cc3)n[nH]2)cc(N2CCN(CCO)CC2)n1 | > 1000 | 5 | > 1000 | 72 | > 1000 | AUC(0-t) at 4 h [3]: 443 ng·h/mL |
| CN1CCN(c2ccc(C(=O)Nc3cc(-c4ccc(CNC(=O)OCc5cccnc5)cc4)n[nH]3)cc2)CC1 | > 1000 | 2 | 220 | 14 | 250 | AUC(0-t) at 4 h [3]: 272 ng·h/mL |
| Cc1cc(COC(=O)NCc2ccc(-c3cc(NC(=O)c4ccc(OCCN5CCCC5)cc4)[nH]n3)cc2)no1 | > 1000 | 2 | 480 | 43 | 590 | AUC(0-t) at 4 h [3]: 448 ng·h/mL |
| CCOC(=O)NCc1ccc(-c2cc(NC(=O)c3ccc(N4CCN(C)CC4)cc3)[nH]n2)cc1 | > 1000 | 48 | 560 | 17 | > 1000 |  |
| Cc1nc(Nc2cc(-c3ccc(CNC(=O)OCc4ccccc4)cc3)n[nH]2)cc(N2CCN(CCO)CC2)n1 | 170 | 2 | 240 | 10 | 290 |  |
| O=C(Nc1ccc(-c2cc(NC(=O)c3ccc(OCCN4CCCC4)cc3)[nH]n2)cc1)Oc1ccccc1 | > 1000 | 47 | 300 | 40 | > 1000 |  |
